Test results: US20130079373A1, “Substituted Methanesulfonamide Derivatives as Vanilloid Receptor Ligands” (priority 2011, published 2013)

Target: T1, vanilloid receptor 1 (VR1/TRPV1 receptor) (Homo sapiens, UniProt Q8NER1)
T1 construct: expressed in transfected cells; host or cells: CHO K1
Experiment: Functional testing on the vanilloid receptor 1 (FLIPR Ca2+ influx assay, capsaicin stimulation)
Format: cell-based
Settings: Cap = capsaicin; human being; Ki from IC50 by the Cheng-Prusoff equation; read-out: (f) Ki (human being) [nM] Cap
Method: Furthermore, preference may be given to compounds according to the invention that cause a 50 percent displacement of capsaicin, which is present at a concentration of 100 nM, in a FLIPR assay with CHO K1 cells which were transfected with the human VR1 gene at a concentration of less than 2,000 nM, preferably less than 1,000 nM, particularly preferably less than 300 nM, most particularly preferably less than 100 nM, even more preferably less than 75 nM, additionally preferably less than 50 nM, most preferably less than 10 nM.
In the process, the Ca^2+ influx is quantified in the FLIPR assay with the aid of a Ca^2+-sensitive dye (type Fluo-4, Molecular Probes Europe BV, Leiden, the Netherlands) in a fluorescent imaging plate reader (FLIPR, Molecular Devices, Sunnyvale, USA), as described hereinafter.
I. Functional Testing Carried Out on the Vanilloid Receptor 1 (VR1/TRPV1 Receptor) […]
The number of cells in the suspension is set to 3×10^5 per mL and 150 μL of this suspension are in each case introduced into a recess in the cell culture plates coated as described hereinbefore. In the incubator the plates are left for two to three days at 37° C., 5% by volume of CO2 and 95% relative humidity. Subsequently, the cells are loaded with 2 μM of Fluo-4 and 0.01% by volume of Pluronic F127 (Molecular Probes Europe BV, Leiden, the Netherlands) in HBSS buffer (Hank's buffered saline solution, Gibco Invitrogen GmbH, Karlsruhe, Germany) for 30 min at 37° C., washed 3 times with HBSS buffer and after further incubation for 15 minutes at room temperature used for Ca^2+ measurement in a FLIPR assay. The Ca^2+ dependent fluorescence is in this case measured before and after the addition of substances (λex=488 nm, λem=540 nm). Quantification is carried out by measuring the highest fluorescence intensity (FC, fluorescence counts) over time.
The FLIPR protocol consists of 2 substance additions. First the compounds to be tested (10 μM) are pipetted onto the cells and the Ca^2+ influx is compared with the control (capsaicin 10 μM). This provides the result in % activation based on the Ca^2+ signal after the addition of 10 μM of capsaicin (CP). After 5 minutes' incubation, 100 nM of capsaicin are applied and the Ca^2+ influx is also determined.
Desensitising agonists and antagonists lead to suppression of the Ca^2+ influx. The % inhibition is calculated compared to the maximum achievable inhibition with 10 μM of capsazepine.
Triple analyses (n=3) are carried out and repeated in at least 3 independent experiments (N=4).
Starting from the percentage displacement caused by different concentrations of the compounds to be tested of general formula I, IC50 inhibitory concentrations which cause a 50-percent displacement of capsaicin were calculated. Ki values for the test substances were obtained by conversion by means of the Cheng-Prusoff equation (Cheng, Prusoff; Biochem. Pharmacol. 22, 3099-3108, 1973).
The affinity of the compounds according to the invention for the vanilloid receptor 1 (VR1/TRPV1 receptor) was determined as described hereinbefore (pharmacological method I).

T1 sequence (Q8NER1 whole entry): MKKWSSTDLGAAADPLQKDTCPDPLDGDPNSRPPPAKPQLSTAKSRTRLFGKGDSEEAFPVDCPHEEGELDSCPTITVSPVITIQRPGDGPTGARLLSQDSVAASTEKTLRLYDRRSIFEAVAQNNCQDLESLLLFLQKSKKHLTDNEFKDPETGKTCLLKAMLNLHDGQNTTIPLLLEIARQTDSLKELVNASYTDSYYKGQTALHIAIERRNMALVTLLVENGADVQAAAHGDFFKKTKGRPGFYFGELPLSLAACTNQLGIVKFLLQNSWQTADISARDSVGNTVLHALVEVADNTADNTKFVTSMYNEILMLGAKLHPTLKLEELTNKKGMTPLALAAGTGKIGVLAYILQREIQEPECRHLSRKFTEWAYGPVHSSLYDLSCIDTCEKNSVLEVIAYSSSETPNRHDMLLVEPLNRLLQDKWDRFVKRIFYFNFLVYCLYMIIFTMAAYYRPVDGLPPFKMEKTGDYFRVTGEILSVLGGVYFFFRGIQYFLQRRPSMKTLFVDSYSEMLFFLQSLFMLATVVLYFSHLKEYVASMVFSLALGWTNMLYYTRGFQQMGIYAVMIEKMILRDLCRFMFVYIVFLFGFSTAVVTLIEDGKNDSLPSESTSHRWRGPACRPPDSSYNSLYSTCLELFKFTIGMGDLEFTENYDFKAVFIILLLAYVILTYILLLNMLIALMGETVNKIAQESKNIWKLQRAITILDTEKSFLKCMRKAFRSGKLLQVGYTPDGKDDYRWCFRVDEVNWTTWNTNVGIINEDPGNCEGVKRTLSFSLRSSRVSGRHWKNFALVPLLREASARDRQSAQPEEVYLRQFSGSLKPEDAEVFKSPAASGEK

| Ki | Compound |
| --- | --- |
| 46 nM | CC(C(=O)NCc1ccc(C(F)(F)F)nc1-c1ccoc1)c1ccc(CNS(C)(=O)=O)c(F)c1 (centres unmarked) [Example 46, 2-(3-fluoro-4-(methylsulfonamidomethyl)phenyl)-N-((2-(furan-3-yl)-6-(trifluoromethyl)pyridin-3-yl)methyl)propanamide] |
| 41 nM | CC(C(=O)NCc1ccc(C(F)(F)F)nc1-c1cccs1)c1ccc(CNS(C)(=O)=O)c(F)c1 (centres unmarked) [Example 47, 2-(3-fluoro-4-(methylsulfonamidomethyl)phenyl)-N-((2-(thiophen-2-yl)-6-(trifluoromethyl)pyridin-3-yl)methyl)propanamide] |
